Values joined by “and” are separate entries in the source; they are usually repeats but may differ in a detail not shown here. Identical values can stand only once.
Key:
Format in all cases: binding
[1] = target: T1, HRas^G12V (Homo sapiens (Human), UniProt P01112, G12V); assay: 19F DLB (ligand-observed 19F NMR) score; set-up: scale not given here
Procedure, shortened: (§1)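 In the T2-CPMG experiment, echo spacing was 1 ms and total delays ranged over eight values from 1 to 800 ms. Both scores come from 600 MHz NMR of 50 μM HRas G12V mixed with fragment pools at 240 μM each, in phosphate buffer pH 7.4 with NaCl, MgCl2 and TCEP-d16. Ligand-observed 19F spectra were recorded with 1H decoupling, 64 scans and a 5 s relaxation delay.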

[2] = target: T1, HRas^G12V; assay: 19F T2-CPMG NMR score
Procedure, shortened: as §1

[3] = target: KRAS^G12D-GDP (Homo sapiens (Human), UniProt P01116, G12D); assay: 19F DLB score, KRAS^G12D-GDP; set-up: scale not given here
Description: Since the fragment library was curated using phosphate buffer, 25 mM sodium phosphate pH 7.4, 150 mM NaCl, 5 mM MgCl2, 1 mM TCEP-d16, 10% D2O Fresh TCEP was used for experiments. Screening was performed using ^1H-decoupled 1D ^19F experiment Bruker experiment (zgfhigqn.2) with 64 scans and a relaxation delay of 5 seconds. 50 μM HRas^G12V and 240 μM of each fragment in pools (mixtures) were used.
Hit confirmation was performed using the same ^19F experiment as the screen. Ligand-observed 1D ^1H, protein-observed 1D ^1H, ^1H T2-CPMG as well as Saturation Transfer Difference (STD) experiments were also run on the same samples. Ligand-observed 1D ^1H was run using the standard Bruker sequence with excitation sculpting (zgesgp) with a relaxation delay of 10 seconds and 16 scans per spectrum. Protein-observed 1D ^1H was performed using the same sequence with a relaxation delay of 1 second and 256 scans in order to increase the signal-to-noise of the protein resonances, while keeping the experimental time relatively short. The ^1H T2-CPMG experiment employed a modified version of the Bruker 1D ^1H zgesgp experiment with the addition of a CPMG pulse train after the first 90° excitation pulse. Total duration for each spin echo was fixed at 1 ms (τ=500 μs), while the number of echoes in the pulse train was varied according to the total time (T). The number of scans for each spectrum was 4 and eight delay times were run on each sample, ranging from 1 ms to 800 ms.
The activity of compounds of the invention regarding KRAS^G12D-GDP was measured in the same as in Example 80. The results obtained with the compounds in the various assays described above are depicted in Table 23.

[4] = target: GDP-HRas^G12V (Homo sapiens (Human), UniProt P01112, G12V); assay: Dissociation constant by microscale thermophoresis (MST)
Description: MST experiments were performed with a Monolith NT.115 Pico (NanoTemper Technologies, Munich, Germany). […] Data was acquired in PBS buffer with 0.1% pluronic acid. Data was analyzed with the NanoTemper MO.Affinity Analysis software.

T1 sequence (P01112 1-166 G12V): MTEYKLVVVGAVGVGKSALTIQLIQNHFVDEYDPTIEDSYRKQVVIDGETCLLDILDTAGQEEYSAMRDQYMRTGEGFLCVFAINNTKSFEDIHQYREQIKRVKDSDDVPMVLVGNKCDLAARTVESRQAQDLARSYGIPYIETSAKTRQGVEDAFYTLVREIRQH
Sequence of GDP-HRas^G12V (P01112 1-166 G12V): as above
Sequence of KRAS^G12D-GDP (P01116-2 other isoform, or with tags, fused parts or gaps G12D): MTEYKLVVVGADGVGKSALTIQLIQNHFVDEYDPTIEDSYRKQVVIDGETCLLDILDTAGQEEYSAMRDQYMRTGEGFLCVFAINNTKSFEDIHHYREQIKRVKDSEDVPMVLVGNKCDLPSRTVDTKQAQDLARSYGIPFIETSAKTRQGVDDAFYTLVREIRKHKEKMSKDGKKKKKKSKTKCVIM

Row | Compound | 19F DLB Score [1] | 19F T2-CPMG Score [2] | 19F DLB Score [3] | Kd [4]
1 | CC(C)N1CCC(NC(=O)Cc2c[nH]c3cc(F)ccc23)CC1 [Compound 10018] | 1.64 and 1.79 and 1.93 and 1.86 and 1.71 | 10.62 and 11.88 and 18.24 and 9.37 and 15.13 | 1.73 | 
2 | O=C(Cc1c[nH]c2cc(F)ccc12)N1CCC(O)CC1 [Compound 10086] | 3.04 | 32.13 | 3.33 | 1810 to 2080 µM
3 | CN(C)CCOc1cccc(NC(=O)Cc2c[nH]c3cc(F)ccc23)c1 [Compound 10095, N-(3-(2-(dimethylamino)ethoxy)phenyl)-2-(6-fluoro-1H-indol-3-yl)acetamide] | 4.19 | 33.38 | 3.56 | 19.1 to 23.5 µM
4 | CN(C)CC(=O)Nc1cccc(NC(=O)Cc2c[nH]c3cc(F)ccc23)c1 [compound 10097] | 3.84 | 38.49 | 4.36 | 65 to 82.9 µM

Source: patent US20240408064A1, “RAS INHIBITORS, COMPOSITIONS AND METHODS OF USE THEREOF” (GENETOLEAD INC., priority 2021, published 2024)
